Marks after values point to notes of the source that are not given here.
Tests used:
[1] = test system: age spot; assay: Skin whitening test: age spot photography, Reverse Photo Engineering quantitative analysis; type: in vivo, human; conditions: for Age Spot Reduction - Reverse Photo Engineering Data, Max % Improvement / Age Spot Reduction - Reverse Photo Engineering Data, % Difference: 0.2% Ac-Gly-β-Ala sample
Description: In this example, the in-vivo skin test is finished by AMA Laboratories USA. The skin color changes are evaluated with Minolta chromameter color computer system. The Age spot photography is evaluated with Reverse Photo Engineering Quantitative Analysis.
In terms of age spot photography, the participants were 5 women aged 38-49 years old, wherein four of the participants were caucasian, and one was Asian. The participants were tested before (baseline), and after using 14, 28, 56 days with high-resolution digital camera, then Reverse Photo Engineering quantitative analysis to perform the age spot change evaluation.

[2] = test system: Human IL-8 secretion, Normal Human Epidermal Keratinocytes (NHEK); assay: Human IL-8 production in UVB-irradiated NHEK (ELISA); type: cell-based; conditions: for Human IL-8 Content, Average: 40 mJ/cm^2 UVB; for Human IL-8 Content, Average / Human IL-8 Content, Entry 1 / Human IL-8 Content, Entry 2 / Human IL-8 Content, Entry 3: Positive Control 100%; for Human IL-8 Content, Entry 1: passage 2 + 2, 40 mJ/cm^2 UVB; for Human IL-8 Content, Entry 2 / Human IL-8 Content, Entry 3: passage 2 + 3, 40 mJ/cm^2 UVB
Description: Normal Human Epidermal Keratinocytes (NHEK) (PromoCell No. C-12008);
Positive Control: 40 mJ/cm^2 UVB,
Negative Control: No UVB irradiation;
a. Rinse the confluent NHEK cells with sterile D-PBS then trypsinize all cells and perform cell counting.
b. Dilute the cell density to 4˜8E+04/mL and seed 0.5 mL cell liquid (equals to 2˜4E+04 cells) each well in 24 well plate.
c. Incubate NHEK cells at 37° C., 5% CO2 until subconfluence.
d. Prepared dosing solution of testing material in Complete Medium: 0.4%, 0.2%, 0.1%, 0.05%.
e. Rinse the NHEK cells with sterile D-PBS and discard rinse buffer. Add 400 μL of controls and testing materials in different concentrations into NHEK cells in 24 well plates.
f. Pre-incubate NHEK cells with testing material at 37° C., 5% CO2 for about 6 hours.
g. After pre-incubating for about 6 hours, wash the NHEK cells with sterile D-PBS for twice then add […] sterile D-PBS for UVB irradiation.
h. UVB intensity is about 2300 μW/cm^2 and UVB energy is about 40 mJ/cm^2.
i. After UVB irradiation, discard sterile D-PBS and wash again. Add 400 μL of the same dosing solution in to each wells.
j. Post-incubate at 37° C., 5% CO2 for about 18 hours.
k. After post-incubating for 18 hours, collect the supernatant of controls and testing materials.
l. Determine the IL-6/IL-8 content of the supernatant by R&D ELISA kit as mentioned previously.
Normal Human Epidermal Keratinocytes (NHEK) were treated by the above-mentioned glycine derivatives for evaluating their anti-inflammatory effect on keratinocytes in this example.

[3] = test system: Raw264.7 cells; assay: Cell viability on Raw264.7; type: cell-based, Murine; conditions: for cell viability on Raw264.7, Entry 2: passage N + 5; for cell viability on Raw264.7, Entry 2 / cell viability on Raw264.7, Entry 3 / cell viability on Raw264.7, Entry 1 / cell viability on Raw264.7, Average: with LPS & IFN-r, Positive Control 100%; for cell viability on Raw264.7, Entry 3: passage N + 6; for cell viability on Raw264.7, Entry 1: passage N + 7
Description: 4.4. Cell Viability is Tested by Neutral Red Uptake Experience or MTT Assay.

Q: What does the source list for `CC(=O)NCC(=O)NCCC(=O)O` [Ac-Gly-β-Ala, 3-(2-acetylamino-acetylamino)-propionic acid]?
A: Age Spot Reduction - Reverse Photo Engineering Data, Max % Improvement ([1]; Day 14): −51.67%; Age Spot Reduction - Reverse Photo Engineering Data, % Difference ([1]; Day 14 vs baseline): −41.47%*; Age Spot Reduction - Reverse Photo Engineering Data, Max % Improvement ([1]; Day 28): −80.63%; Age Spot Reduction - Reverse Photo Engineering Data, % Difference ([1]; Day 28 vs baseline): −63.37%; Age Spot Reduction - Reverse Photo Engineering Data, Max % Improvement ([1]; Day 56): −87.40%; Age Spot Reduction - Reverse Photo Engineering Data, % Difference ([1]; Day 56 vs baseline): −73.07%*; quantitative analyzed data for the age spot change evaluation ([1]; sample containing 0.2% Ac-Gly-β-Ala): significantly decreased; IL-8 production, dose dependence ([2]; 0.05%-0.4%, UVB): inhibited IL-8 production in dose-dependent manner; Human IL-8 Content, Average ([2]; Table 7, 0.05%): 97%; Human IL-8 Content, Entry 1 ([2]; Table 7, 0.05%): 107%; Human IL-8 Content, Entry 2 ([2]; Table 7, 0.05%): 81%; Human IL-8 Content, Entry 3 ([2]; Table 7, 0.05%): 103%; Human IL-8 Content, Average ([2]; Table 7, 0.10%): 80%; Human IL-8 Content, Entry 1 ([2]; Table 7, 0.10%): 76%; Human IL-8 Content, Entry 2 ([2]; Table 7, 0.10%): 70%; Human IL-8 Content, Entry 3 ([2]; Table 7, 0.10%): 93%; Human IL-8 Content, Average ([2]; Table 7, 0.20%): 69%; Human IL-8 Content, Entry 1 ([2]; Table 7, 0.20%): 77%; Human IL-8 Content, Entry 2 ([2]; Table 7, 0.20%): 72%; Human IL-8 Content, Entry 3 ([2]; Table 7, 0.20%): 59%; Human IL-8 Content, Entry 1 ([2]; Table 7, 0.40%): 10%; Human IL-8 Content, Entry 2 ([2]; Table 7, 0.40%): 5%; Human IL-8 Content, Entry 3 ([2]; Table 7, 0.40%): 13%; cell viability on Raw264.7, Entry 2 ([3]; 0.05%): 101%; cell viability on Raw264.7, Entry 3 ([3]; 0.05%): 89%; cell viability on Raw264.7, Entry 1 ([3]; 0.05%): 101%; cell viability on Raw264.7, Average ([3]; 0.05%): 96%; cell viability on Raw264.7, Entry 2 ([3]; 0.10%): 104%; cell viability on Raw264.7, Entry 3 ([3]; 0.10%): 87%; cell viability on Raw264.7, Entry 1 ([3]; 0.10%): 95%; cell viability on Raw264.7, Average ([3]; 0.10%): 97%; cell viability on Raw264.7, Entry 2 ([3]; 0.20%): 98%; cell viability on Raw264.7, Entry 3 ([3]; 0.20%): 91%; cell viability on Raw264.7, Entry 1 ([3]; 0.20%): 90%; cell viability on Raw264.7, Average ([3]; 0.20%): 100%; cell viability on Raw264.7, Entry 2 ([3]; 0.40%): 77%; cell viability on Raw264.7, Entry 3 ([3]; 0.40%): 89%; cell viability on Raw264.7, Entry 1 ([3]; 0.40%): 86%; cell viability on Raw264.7, Average ([3]; 0.40%): 88%; Cell viability ([3]; Raw264.7, all of dosing solution (0.05-0.4%)): higher than 85%

Source: US20140314697A1, “Method for Inhibiting Inflammation and Reducing Melanophilin Expression with Glycine Derivatives And the Composition Thereof” (CORUM INC., priority 2013, published 2014)
